# Assay results from patent publication US12178791B2, “Haloallylamine sulfone derivative inhibitors of lysyl oxidases and uses thereof” (Syntara Limited, priority 2018, dated 2024).
# “Also recorded” adds a separate entry of the source. Where a name gives a salt, the structure may show the parent alone.
# Key:
# [1] = target: LOXL2 (Homo sapiens (Human), UniProt Q9Y4K0); assay: LOXL2 inhibition, Amplex Red oxidation assay; format: biochemical; conditions: 30 min preincubation at 37 °C, putrescine substrate
# Sequence of LOXL2 (Q9Y4K0 26-774): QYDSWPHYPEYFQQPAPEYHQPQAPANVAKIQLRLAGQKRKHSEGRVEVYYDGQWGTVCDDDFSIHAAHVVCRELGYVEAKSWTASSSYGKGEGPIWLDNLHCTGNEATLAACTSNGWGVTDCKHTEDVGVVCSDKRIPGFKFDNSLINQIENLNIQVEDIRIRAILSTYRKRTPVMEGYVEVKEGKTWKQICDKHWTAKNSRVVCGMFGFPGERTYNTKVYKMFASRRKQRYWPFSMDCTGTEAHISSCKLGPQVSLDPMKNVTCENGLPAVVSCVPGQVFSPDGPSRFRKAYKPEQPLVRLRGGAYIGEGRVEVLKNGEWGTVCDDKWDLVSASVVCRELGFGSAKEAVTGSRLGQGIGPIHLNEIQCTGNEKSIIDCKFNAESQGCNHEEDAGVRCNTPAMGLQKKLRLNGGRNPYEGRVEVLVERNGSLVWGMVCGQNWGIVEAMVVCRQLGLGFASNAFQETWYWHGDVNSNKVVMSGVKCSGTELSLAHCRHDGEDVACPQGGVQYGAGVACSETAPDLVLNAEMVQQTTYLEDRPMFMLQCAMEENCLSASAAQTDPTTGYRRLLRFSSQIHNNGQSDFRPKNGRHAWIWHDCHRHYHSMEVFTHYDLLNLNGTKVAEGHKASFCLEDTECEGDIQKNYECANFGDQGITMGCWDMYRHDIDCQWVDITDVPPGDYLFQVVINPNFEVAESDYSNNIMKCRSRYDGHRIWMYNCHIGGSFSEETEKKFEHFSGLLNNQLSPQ
# In short: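 LOXL2 in 1.2 M urea, 50 mM sodium borate pH 8.2 was preincubated with compound (11-point curve) for 30 min at 37 °C; mofegiline/pargyline were added only for non-purified enzyme. Reaction mix held 2× KM putrescine (10 mM), 120 μM Amplex Red and 1.5 U/mL HRP. H2O2 fluorescence (ex 565/em 590 nm) was read over 30 min, and IC50 came from slopes.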
# [2] = target: LOXL1 (Homo sapiens (Human), UniProt Q08397); assay: Jump dilution experiment, sustained inhibition of LOXL1; format: biochemical; conditions: jump dilution after 40 min at 37 °C with 10× or 30× IC50; vs non-inhibited controls;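 further: 30× IC50 used only where needed so inhibitor exceeds enzyme concentration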
# Sequence of LOXL1 (Q08397 96-574, species assumed): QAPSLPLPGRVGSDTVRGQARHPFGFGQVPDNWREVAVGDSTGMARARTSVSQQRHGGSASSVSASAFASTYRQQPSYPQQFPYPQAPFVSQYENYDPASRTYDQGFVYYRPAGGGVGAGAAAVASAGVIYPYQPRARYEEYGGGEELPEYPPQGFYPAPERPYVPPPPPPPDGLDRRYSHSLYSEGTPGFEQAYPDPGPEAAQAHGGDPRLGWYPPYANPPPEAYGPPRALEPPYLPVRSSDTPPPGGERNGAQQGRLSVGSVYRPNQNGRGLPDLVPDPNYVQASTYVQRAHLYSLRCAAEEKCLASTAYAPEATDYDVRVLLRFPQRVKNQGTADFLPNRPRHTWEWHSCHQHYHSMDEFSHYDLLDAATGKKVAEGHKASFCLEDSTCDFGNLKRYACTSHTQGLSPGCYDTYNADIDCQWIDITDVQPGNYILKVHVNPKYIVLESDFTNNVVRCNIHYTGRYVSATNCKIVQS
# In short: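 Enzyme preincubated with inhibitor at 100× the inhibition-study enzyme concentration, then diluted 50× in assay buffer and 2× in Amplex Red–HRP–putrescine mix. Fluorescence read; activity expressed as % signal recovery after a set time versus uninhibited controls.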
# [3] = test system: lysyl oxidase; assay: Target engagement: lysyl oxidase activity, ear slice assay; format: in vivo, Wistar rats
# Protocol: The ears, collected right after sacrifice of the rats (treated or untreated with a LOX inhibitor), were snap frozen in dry ice for −80° C. storage. For the assay, 5×5 mm samples were cut (still half-thawed), embedded in agarose gel and cut in cross sections […] thick (vibratome). The thin sections were collected in ice cold PBS containing protease inhibitors, and allowed to rest in the bath for 2-3 hours, to allow soluble contaminants to diffuse away prior to the assay. For a 96 well plate format: three thin slices were collected, gently blotted dry on Kimwipe, and transferred to each well containing 100 μl of assay buffer (1.2 M urea, 50 mM sodium borate buffer, pH 8.2), for a 30 minute pre-incubation at 37° C. in presence of 1 μM mofegiline and 500 μM pargyline. BAPN (500 μM) had been added to all the “low control” wells. A minimum of three replicas were performed for each condition.
# After pre-incubation, 100 μl of Amplex Red-horseradish peroxidase (HRP) mix (120 μM Amplex Red, 1.5 U/mL HRP, 20 mM putrescine) were added to all wells, and the plate was read at 37° C. every 2.5 minutes for 13 times, (544 nm excitation and 590 nm emission, on a BMG Clariostar, in orbital, top reading mode). The slope of the kinetic curves, subtracted by the values obtained in the low controls (in presence of BAPN), was considered a measure of the specific lysyl oxidase activity in the sample.
# Young male Wistar rats were given a single oral dose (10 or 30 mg/kg) of Compounds 1 or 33 (Table 5 and 6 respectively) and the enzymatic activity was measured in tissues with a high basal activity at this age, in the ear (FIGS. 2a and b; Compound 1 and 33 respectively) and aorta (FIG. 3c; Compound 33 only). The responses were normalised to the activity measured in animals treated with saline (control).
# [4] = target: Recombinant human MAO-B (Homo sapiens (Human), UniProt P27338); assay: Inhibition of human recombinant MAO-B; format: biochemical; conditions: benzylamine 100 μM
# Sequence of Recombinant human MAO-B (P27338 whole entry): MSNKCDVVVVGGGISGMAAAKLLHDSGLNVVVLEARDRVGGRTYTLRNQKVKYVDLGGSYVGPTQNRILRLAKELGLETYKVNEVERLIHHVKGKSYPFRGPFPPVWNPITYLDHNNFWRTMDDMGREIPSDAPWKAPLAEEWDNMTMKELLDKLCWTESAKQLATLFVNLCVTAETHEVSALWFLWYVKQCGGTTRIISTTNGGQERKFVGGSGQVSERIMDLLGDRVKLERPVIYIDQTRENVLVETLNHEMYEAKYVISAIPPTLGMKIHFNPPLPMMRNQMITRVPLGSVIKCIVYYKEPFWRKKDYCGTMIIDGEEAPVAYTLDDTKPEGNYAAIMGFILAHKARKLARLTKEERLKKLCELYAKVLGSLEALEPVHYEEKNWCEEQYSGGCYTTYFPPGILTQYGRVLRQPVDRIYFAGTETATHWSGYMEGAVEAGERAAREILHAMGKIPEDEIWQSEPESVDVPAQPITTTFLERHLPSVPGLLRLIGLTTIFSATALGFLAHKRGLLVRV
# Protocol: The specificity of the compounds of this invention was tested by determining their ability to inhibit MAO-B activities in vitro. Recombinant human MAO-B (0.06 mg/mL; Sigma Aldrich) was used as source of MAO-B enzyme activities. The assay was performed in a similar way as for human SSAO/VAP-1 (Example 28) except, the substrate benzylamine was used at 100 μM.
Compound,IC50 [1] [µM],LOXL1 - Recovery of activity. (%) [2] [%],lysyl oxidase activity in rat tissue ([3]; single high (30 mg/kg) oral dose),half-life of recovery of lysyl oxidase activity (ear) ([3]; single oral dose 30 mg/kg) [h],IC50 [4] [µM],"LOX activity in rat ear ([3]; 24 hours after single oral dose at 10 and 30 mg/kg, vs saline control, hydrochloride)"
"NC/C=C(\F)CS(=O)(=O)c1cccc2cccnc12 [Compound 33, (Z)-3-fluoro-4-(quinolin-8-ylsulfonyl)but-2-en-1-amine dihydrochloride]",< 1,4.5,completely abolish,48 to 72,> 30,–
"NC/C=C(\F)CS(=O)(=O)c1ccccc1 [Compound 1, (Z)-3-fluoro-4-(phenylsulfonyl)but-2-en-1-amine hydrochloride]",< 10,2.4,–,–,> 30,"dose-dependent block; also recorded: dose dependent, sustained reduction"
